Calls of active or inactive are those of the source. The calls are words filed in the database; no cut-off is given here.
Legend:
K562 [1] = assay: Antiproliferative activity against human K562 cells assessed as inhibition of cell growth measured after 72 hrs by CCK8 assay; format: functional, cell-based; conditions: K562, 72 h
U-937 = assay: Antiproliferative activity against human U-937 cells assessed as inhibition of cell growth measured after 72 hrs by CCK8 assay; format: functional, cell-based; conditions: U-937, 72 h
HL-60 = assay: Antiproliferative activity against human HL-60 cells assessed as inhibition of cell growth measured after 72 hrs by CCK8 assay; format: functional, cell-based; conditions: HL-60, 72 h
MOLT-4 = assay: Antiproliferative activity against human MOLT-4 cells assessed as inhibition of cell growth measured after 72 hrs by CCK8 assay; format: functional, cell-based; conditions: MOLT-4, 72 h
NCI-H1299 = assay: Antiproliferative activity against human NCI-H1299 cells assessed as inhibition of cell growth measured after 72 hrs by CCK8 assay; format: functional, cell-based; conditions: NCI-H1299, 72 h
K562 [2] = assay: Downregulation of Myc expression in human K562 cells incubated for 24 hrs by Western blotting analysis; format: functional, cell-based; conditions: dose 11.1-900 nM
K562 [3] = assay: Downregulation of HSP90 expression in human K562 cells at 11.1 to 900 nM incubated for 24 hrs by Western blotting analysis; format: functional, cell-based; conditions: dose 11.1-900 nM
K562 [4] = assay: Downregulation of p38 expression in human K562 cells at 11.1 to 900 nM incubated for 24 hrs by Western blotting analysis; format: functional, cell-based; conditions: dose 11.1-900 nM
MDA-MB-453 = assay: Antiproliferative activity against human MDA-MB-453 cells assessed as inhibition of cell growth measured after 72 hrs by CCK8 assay; format: functional, cell-based; conditions: MDA-MB-453, 72 h
NCI-H1975 = assay: Antiproliferative activity against human NCI-H1975 cells assessed as inhibition of cell growth measured after 72 hrs by CCK8 assay; format: functional, cell-based; conditions: NCI-H1975, 72 h
NCI-H716 = assay: Antiproliferative activity against human NCI-H716 cells assessed as inhibition of cell growth measured after 72 hrs by CCK8 assay; format: functional, cell-based; conditions: NCI-H716, 72 h
K562 [5] = assay: Downregulation of Bcr-Abl expression in human K562 cells incubated for 24 hrs by Western blotting analysis; format: functional, cell-based; conditions: dose 11.1-900 nM
HCT-116 = assay: Antiproliferative activity against human HCT-116 cells assessed as inhibition of cell growth measured after 72 hrs by CCK8 assay; format: functional, cell-based; conditions: HCT-116, 72 h
BaF3 = assay: Antiproliferative activity against mouse BaF3 cells expressing Bcr/Abl-T315I mutant assessed as inhibition of cell growth measured after 72 hrs by CCK8 assay; format: functional, cell-based; conditions: BaF3, 72 h
MV4-11 = assay: Antiproliferative activity against human MV4-11 cells assessed as inhibition of cell growth measured after 72 hrs by CCK8 assay; format: functional, cell-based; conditions: MV4-11, 72 h
[6] = Cytotoxicity against human HL7702 cells assessed as inhibition of cell growth measured after 72 hrs by CCK8 assay; format: toxicity, cell-based; conditions: HL7702 (L02) cells
K562 [7] = assay: Downregulation of Mcl-1 expression in human K562 cells incubated for 24 hrs by Western blotting analysis; format: functional, cell-based; conditions: dose 11.1-900 nM
Huh-7 = assay: Antiproliferative activity against human Huh-7 cells assessed as inhibition of cell growth measured after 72 hrs by CCK8 assay; format: functional, cell-based; conditions: Huh-7, 72 h
OCI-Ly3 = assay: Antiproliferative activity against human OCILY3 cells assessed as inhibition of cell growth measured after 72 hrs by CCK8 assay; format: functional, cell-based; conditions: OCI-Ly3, 72 h
A204 = assay: Antiproliferative activity against human A204 cells assessed as inhibition of cell growth measured after 72 hrs by CCK8 assay; format: functional, cell-based; conditions: A204, 72 h
4T1 = assay: Antiproliferative activity against mouse 4T1 cells assessed as inhibition of cell growth measured after 72 hrs by CCK8 assay; format: functional, cell-based; conditions: 4T1, 72 h

| Compound | IC50 (K562 [1]) [µM] | IC50 (U-937) [µM] | IC50 (HL-60) [µM] | further results |
| --- | --- | --- | --- | --- |
| COC(=O)C[C@H](Cc1cccc(NC(=O)OC(C)(C)C)c1)C(=O)O[C@@H]1C(OC)=C[C@]23CCCN2CCc2cc4c(cc2[C@H]13)OCO4 | 0.163 | 0.257 | 0.199 |  |
| CCOC(=O)C[C@H](Cc1ccc(OCc2ccccc2)cc1)C(=O)O[C@@H]1C(OC)=C[C@]23CCCN2CCc2cc4c(cc2[C@H]13)OCO4 | 0.693 | 1.05 | 0.89 |  |
| COC(=O)C[C@@H](Cc1cccs1)C(=O)O[C@@H]1C(OC)=C[C@]23CCCN2CCc2cc4c(cc2[C@H]13)OCO4 | 0.186 | 0.277 | 0.246 |  |
| COC(=O)C[C@H](Cc1cccc(OCc2ccccc2)c1)C(=O)O[C@@H]1C(OC)=C[C@]23CCCN2CCc2cc4c(cc2[C@H]13)OCO4 | 0.152 | 0.248 | 0.202 |  |
| COC(=O)C[C@H](Cc1cccc(Br)c1)C(=O)O[C@@H]1C(OC)=C[C@]23CCCN2CCc2cc4c(cc2[C@H]13)OCO4 | 0.203 | 0.214 | 0.235 |  |
| COC(=O)C[C@H](Cc1ccc(F)cc1)C(=O)O[C@@H]1C(OC)=C[C@]23CCCN2CCc2cc4c(cc2[C@H]13)OCO4 | 0.207 | 0.288 | 0.266 |  |
| COC(=O)C[C@H](Cc1ccccc1OCc1ccccc1)C(=O)O[C@@H]1C(OC)=C[C@]23CCCN2CCc2cc4c(cc2[C@H]13)OCO4 | 0.482 | 0.725 | 0.569 |  |
| COC(=O)C[C@H](Cc1ccc2ccccc2c1)C(=O)O[C@@H]1C(OC)=C[C@]23CCCN2CCc2cc4c(cc2[C@H]13)OCO4 | 0.344 | 0.441 | 0.396 |  |
| COC(=O)C[C@H](Cc1cccc(F)c1)C(=O)O[C@@H]1C(OC)=C[C@]23CCCN2CCc2cc4c(cc2[C@H]13)OCO4 | 0.123 | 0.174 | 0.122 |  |
| COC(=O)C[C@H](Cc1ccc(OC(C)=O)cc1)C(=O)O[C@@H]1C(OC)=C[C@]23CCCN2CCc2cc4c(cc2[C@H]13)OCO4 | 0.121 | 0.204 | 0.142 |  |
| Cc1ccc(NC(=O)c2ccc(CN3CCN(C)CC3)cc2)cc1Nc1nccc(-c2cccnc2)n1 [IMATINIB] | 0.135 | 16.6 | 28.5 |  |
| COC(=O)C[C@H](Cc1ccc(N)cc1)C(=O)O[C@@H]1C(OC)=C[C@]23CCCN2CCc2cc4c(cc2[C@H]13)OCO4 | 0.112 | 0.121 | 0.13 | IC50 (MOLT-4): 0.06 µM; IC50 (NCI-H1299): 0.173 µM; Activity (K562 [2]): Dose-Dependent Effect; Activity (K562 [3]): inactive; Activity (K562 [4]): inactive; IC50 (MDA-MB-453): 0.07 µM; IC50 (NCI-H1975): 11.9 µM; IC50 (NCI-H716): 0.107 µM; Activity (K562 [5]): Dose-Dependent Effect; IC50 (HCT-116): 0.107 µM; IC50 (BaF3): 0.246 µM; IC50 (MV4-11): 0.098 µM; IC50 at 72 h [6]: 0.494 µM; Activity (K562 [7]): Dose-Dependent Effect; IC50 (Huh-7): 0.216 µM; IC50 (OCI-Ly3): 0.058 µM; IC50 (A204): 0.038 µM; IC50 (4T1): 0.296 µM |
| COC(=O)C[C@H](Cc1cccc(N)c1)C(=O)O[C@@H]1C(OC)=C[C@]23CCCN2CCc2cc4c(cc2[C@H]13)OCO4 | 0.121 | 0.213 | 0.145 |  |
| COC(=O)C[C@H](Cc1ccc(OCc2ccccc2)cc1)C(=O)O[C@@H]1C(OC)=C[C@]23CCCN2CCc2cc4c(cc2[C@H]13)OCO4 | 0.103 | 0.174 | 0.151 |  |
| COC(=O)C[C@H](C)C(=O)O[C@@H]1C(OC)=C[C@]23CCCN2CCc2cc4c(cc2[C@H]13)OCO4 | 14.5 | 13.8 | 18 |  |
| COC(=O)C[C@@H](Cc1ccc(F)cc1)C(=O)O[C@@H]1C(OC)=C[C@]23CCCN2CCc2cc4c(cc2[C@H]13)OCO4 | 0.373 | 0.673 | 0.597 |  |
| COC1=C[C@]23CCCN2CCc2cc4c(cc2[C@@H]3[C@@H]1O)OCO4 [CEPHALOTAXINE] | > 30 | > 30 | > 30 |  |
| COC(=O)C[C@H](Cc1ccccc1O)C(=O)O[C@@H]1C(OC)=C[C@]23CCCN2CCc2cc4c(cc2[C@H]13)OCO4 | 0.681 | 0.807 | 0.718 |  |
| COC(=O)C[C@H](CCC(C)(C)C)C(=O)O[C@@H]1C(OC)=C[C@]23CCCN2CCc2cc4c(cc2[C@H]13)OCO4 | 0.368 | 1.22 | 0.907 |  |
| COC(=O)C[C@H](Cc1ccc(O)cc1)C(=O)O[C@@H]1C(OC)=C[C@]23CCCN2CCc2cc4c(cc2[C@H]13)OCO4 | 0.096 | 0.15 | 0.153 |  |
| COC(=O)C[C@H](Cc1cccc(O)c1)C(=O)O[C@@H]1C(OC)=C[C@]23CCCN2CCc2cc4c(cc2[C@H]13)OCO4 | 0.139 | 0.176 | 0.184 |  |
| COC(=O)C[C@H](Cc1ccccc1)C(=O)O[C@@H]1C(OC)=C[C@]23CCCN2CCc2cc4c(cc2[C@H]13)OCO4 | 0.096 | 0.17 | 0.155 |  |
| COC(=O)C[C@H](Cc1ccc(NC(=O)OC(C)(C)C)cc1)C(=O)O[C@@H]1C(OC)=C[C@]23CCCN2CCc2cc4c(cc2[C@H]13)OCO4 | 0.149 | 0.13 | 0.155 |  |
| COC(=O)C[C@H](Cc1ccccc1Br)C(=O)O[C@@H]1C(OC)=C[C@]23CCCN2CCc2cc4c(cc2[C@H]13)OCO4 | 0.464 | 0.7 | 0.535 |  |
| Cc1nc(Nc2ncc(C(=O)Nc3c(C)cccc3Cl)s2)cc(N2CCN(CCO)CC2)n1 [DASATINIB] | 0.001 | 15 | 15 |  |
| COC(=O)C[C@](O)(CCCC(C)(C)O)C(=O)O[C@@H]1C(OC)=C[C@]23CCCN2CCc2cc4c(cc2[C@H]13)OCO4 [OMACETAXINE MEPESUCCINATE] | 0.014 | 0.012 | 0.013 | IC50 (MOLT-4): 0.007 µM; IC50 (NCI-H1299): 0.022 µM; IC50 (MDA-MB-453): 0.021 µM; IC50 (NCI-H1975): 0.022 µM; IC50 (NCI-H716): 0.065 µM; IC50 (HCT-116): 0.013 µM; IC50 (BaF3): 0.081 µM; IC50 (MV4-11): 0.005 µM; IC50 at 72 h [6]: 0.064 µM; IC50 (Huh-7): 0.04 µM; IC50 (OCI-Ly3): 0.005 µM; IC50 (A204): 0.004 µM; IC50 (4T1): 0.06 µM |
| COC(=O)C[C@H](Cc1ccc(Br)cc1)C(=O)O[C@@H]1C(OC)=C[C@]23CCCN2CCc2cc4c(cc2[C@H]13)OCO4 | 0.553 | 0.929 | 0.701 |  |
| CCOC(=O)C[C@H](Cc1ccc(O)cc1)C(=O)O[C@@H]1C(OC)=C[C@]23CCCN2CCc2cc4c(cc2[C@H]13)OCO4 | 0.572 | 0.834 | 0.576 |  |
| COC(=O)C[C@@H](Cc1ccccc1)C(=O)O[C@@H]1C(OC)=C[C@]23CCCN2CCc2cc4c(cc2[C@H]13)OCO4 | 0.404 | 0.725 | 0.548 |  |

Reference: ChEMBL document CHEMBL5247597, “Enantioselective semisynthesis of novel cephalotaxine esters with potent antineoplastic activities against leukemia” (Eur J Med Chem, 2022)
